According to PMC8225008, “Development of Non-Ethoxypropanoic Acid Type Cryptochrome Inhibitors with Circadian Molecular Clock-Enhancing Activity by Bioisosteric Replacement” (Pharmaceuticals, 2021):

How the values were obtained:
hCRY1 = biological target: T1, hCRY1 (Homo sapiens, UniProt Q16526); assay: Surface plasmon resonance, CRY1; type: binding; parameters: GST; purchased MyBioSource; host or cells: baculovirus expression system; details: SPR, His-tagged CRY1, Langmuir 1:1 model
T1 sequence (Q16526 1-586): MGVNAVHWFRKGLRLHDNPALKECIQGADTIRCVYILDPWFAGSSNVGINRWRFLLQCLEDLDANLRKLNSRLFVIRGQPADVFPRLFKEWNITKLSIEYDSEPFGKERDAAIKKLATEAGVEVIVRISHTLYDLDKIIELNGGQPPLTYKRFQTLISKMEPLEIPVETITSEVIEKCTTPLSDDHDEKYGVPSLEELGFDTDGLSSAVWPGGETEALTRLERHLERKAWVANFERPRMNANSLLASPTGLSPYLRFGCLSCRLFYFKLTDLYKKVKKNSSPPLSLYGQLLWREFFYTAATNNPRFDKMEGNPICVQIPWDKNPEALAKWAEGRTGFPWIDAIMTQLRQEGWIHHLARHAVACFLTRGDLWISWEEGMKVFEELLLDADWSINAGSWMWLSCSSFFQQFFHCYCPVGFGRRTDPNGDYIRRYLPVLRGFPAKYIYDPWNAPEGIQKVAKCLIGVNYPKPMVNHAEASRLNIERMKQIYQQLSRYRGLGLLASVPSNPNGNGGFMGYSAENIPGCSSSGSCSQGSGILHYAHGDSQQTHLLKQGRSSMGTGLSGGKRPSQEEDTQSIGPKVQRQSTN
Description: We used a ProteOn XPR36 system (Bio-Rad, Hercules, CA, USA) equipped with a HTE sensor chip (high capacity tris-NTA for histidine-tagged […] capture, Bio-Rad) for surface plasmon resonance analyses. Purified target proteins (6xHis- and GST-tagged hCRY1 and hCRY2) were prepared by a baculovirus expression system (MyBioSource, San Diego, CA, USA). Phosphate buffered saline (PBS) plus 0.005% Tween 20 was used as the running buffer. The 6xHis-hCRY1 and 6xHis-hCRY2 proteins were immobilized onto separate channels of a HTE chip by injecting 210 μL protein sample (2.0 μg/mL) into flow cells (30 μL/min) to allow saturation. Serially diluted compound 2d samples (50–800 μM) were prepared in 4% DMSO in TBS-T buffer. […] Recorded resonance units (RU) were normalized and plotted against chemical concentration. […]
(§1) The EC50 values for luciferase reporter assay were calculated based on a logistic four-parametric equation using the mean values of intrinsic activation (SigmaPlot 10.0; Systat Software Inc., San Jose, CA, USA). The IC50 and t1/2 values for the cytochrome P450 inhibition assay and metabolic stability test were calculated by WinNonlin software (Pharsight, Mountain View, CA, USA). Pharmacokinetic parameters were calculated using non-compartmental analysis (WinNonlin v.8.3; Pharsight, Mountain View, CA, USA). […]

CYP2C19 = biological target: T2, CYP2C19 (Homo sapiens, UniProt P33261); assay: Cytochrome P450 inhibition assay (cocktail method, human liver microsomes), omeprazole hydroxylation; type: in vitro ADME
T2 construct: pooled human liver microsomes (HLMs, XTreme 200, XenoTech, Lenexa, KS, USA); tissue XenoTech XTreme 200; host or cells: pooled human liver microsomes
Description: (§2) The inhibitory effects of KS15 and compound 5d on the metabolism of five cytochrome P450 (P450) probe substrates were evaluated using previous methods with slight modifications. The following P450 probe substrates were used: phenacetin (100 μM) for CYP1A2, tolbutamide (100 μM) for CYP2C9, omeprazole (20 μM) for CYP2C19, dextromethorphan (5 μM) for CYP2D6, and midazolam (5 μM) for CYP3A. Incubation mixtures containing pooled human liver microsomes (HLMs, XTreme 200, XenoTech, Lenexa, KS, USA), P450 probe substrates, and KS15 or compound 5d (final concentrations: 0, 0.5, 2, 5, 20, and 50 μM) were preincubated for 5 min at 37 °C. […] After centrifugation at 18,000× g (5 min, 4 °C), supernatant aliquots were analyzed by liquid chromatography-tandem mass spectrometry (LC-MS/MS). […]
(§3) All metabolites and IS were separated on a Kinetex C18 column (100 mm × 2.1 mm, 2.6 μm ID., Phenomenex, Torrance, CA, USA) and analyzed using an LC-MS/MS system (LCMS 8060, Shimadzu, Tokyo, Japan) equipped with an electrospray ionization (ESI) interface. […]
as §1, with “The IC50 and t1/2 values for the cytochrome P450 inhibition assay and metabolic stability test were calculated by WinNonlin software (Pharsight, Mountain View, CA, USA).” left out

CYP3A = assay: Cytochrome P450 inhibition assay (cocktail method, human liver microsomes), midazolam 1'-hydroxylation; type: in vitro ADME; details: pooled human liver microsomes, probe midazolam (5 μM)
Description: as §2, §3
as §1, with “The IC50 and t1/2 values for the cytochrome P450 inhibition assay and metabolic stability test were calculated by WinNonlin software (Pharsight, Mountain View, CA, USA).” left out

T2 sequence (P33261 whole entry): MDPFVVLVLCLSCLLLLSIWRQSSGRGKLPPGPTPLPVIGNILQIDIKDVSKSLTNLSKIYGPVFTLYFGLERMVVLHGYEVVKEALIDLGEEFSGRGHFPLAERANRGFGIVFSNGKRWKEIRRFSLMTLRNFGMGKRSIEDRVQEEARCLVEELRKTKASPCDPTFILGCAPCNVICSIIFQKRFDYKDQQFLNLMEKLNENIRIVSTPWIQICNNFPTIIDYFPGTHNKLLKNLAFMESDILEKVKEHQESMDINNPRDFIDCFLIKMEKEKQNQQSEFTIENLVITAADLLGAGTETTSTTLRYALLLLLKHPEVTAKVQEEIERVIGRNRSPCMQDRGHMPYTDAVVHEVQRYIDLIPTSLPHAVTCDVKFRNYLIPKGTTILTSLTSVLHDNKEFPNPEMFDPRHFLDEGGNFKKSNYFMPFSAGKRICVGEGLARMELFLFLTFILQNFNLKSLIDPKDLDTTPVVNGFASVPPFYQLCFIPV

Row | Kd (hCRY1) | IC50 (CYP2C19) | IC50 at 10 min (CYP3A) | SMILES
1 | 389 µM |  |  | CC(=NOCc1ccc([N+](=O)[O-])cc1)c1cccc(OCC(=O)O)c1 [Compound 2d, 2-(3-(1-(((4-nitrobenzyl)oxy)imino)ethyl)phenoxy)acetic acid]
2 |  | > 50 µM | > 50 µM | COC(=O)COc1cccc(C(C)=NOCc2ccc([N+](=O)[O-])cc2)c1 [Compound 5d, Methyl 2-(3-(1-(((4-nitrobenzyl)oxy)imino)ethyl)phenoxy)acetate]
